Read-outs that look alike come from different tables or passages of the source.
Legend:
[1] = normal air humidity conditions, within some hours, stated as known, cited from earlier work
[2] = stability of the crystalline structure (X-ray powder diffraction pattern) under normal air humidity conditions; type: physicochemical; conditions: kept for several weeks under normal air humidity conditions
Experimental: “Stable monohydrate” as used herein includes a compound of formula I in the form of a monohydrate which is crystalline and which maintains its crystalline structure for at least 24 hours, e.g. for several weeks, under normal, e.g. normal air humidity, conditions. The crystalline structure of azithromycin in the form of a monohydrate may be determined by its (known) X-ray powder diffraction pattern. The X-ray powder diffraction pattern and the IR spectrum of azithromycin in the form of a monohydrate obtained according to the following examples corresponding to that of known (unstable) azithromycin in the form of a monohydrate.

| SMILES | stability of the crystal structure [1] | crystallinity and X-ray powder diffraction pattern on storage [2] | stability of the crystal structure ([1]; listed as azithromycin in the form of a monohydrate) |
| --- | --- | --- | --- |
| CC[C@H]1OC(=O)[C@H](C)[C@@H](O[C@H]2C[C@@](C)(OC)[C@@H](O)[C@H](C)O2)[C@H](C)[C@@H](O[C@@H]2O[C@H](C)C[C@H](N(C)C)[C@H]2O)[C@](C)(O)C[C@@H](C)CN(C)[C@H](C)[C@@H](O)[C@]1(C)O [azithromycin in the form of a dihydrate, 9-deoxo-9a-aza-9a-methyl-9a-homoerythromycin A, reference compound] | not to break down within some hours |  |  |
| CC[C@H]1OC(=O)[C@H](C)[C@@H](O[C@H]2C[C@@](C)(OC)[C@@H](O)[C@H](C)O2)[C@H](C)[C@@H](O[C@@H]2O[C@H](C)C[C@H](N(C)C)[C@H]2O)[C@](C)(O)C[C@@H](C)CN(C)[C@H](C)[C@@H](O)[C@]1(C)O [9-deoxo-9a-aza-9a-methyl-9a-homoerythromycin A] |  | maintains its crystallinity and its X-ray powder diffraction pattern | unstable |

Reference: patent US6703372B1, “Macrolides” (Biochemie S.A., priority 1999, dated 2004)
